Experimental findings from PubChem BioAssay (NCI) are described below.

Among the test systems are ACHN renal; CAKI-1 renal; COLO 205 colon; DU-145 prostate; HCT-116 colon; HOP-62 NSCLC; HOP-92 NSCLC; LOX IMVI melanoma; M14 melanoma; MDA-MB-435; NCI-H23 lung; OVCAR-4 ovarian; PC-3 prostate; RPMI-8226 leukemia; SK-MEL-28 melanoma; SN12C renal; T-47D breast; TK-10 renal; UACC-257 melanoma; SR leukemia.
Assay in all cases: NCI tumour cell line growth inhibition, 48 h

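Growth conditions: 96-well plates. Treatment: test compound, 48 hours, 5 concentrations. Analysis: linear interpolation between bracketing concentrations; unreached endpoints set to highest concentration. TGI denotes the concentration required for complete inhibition of growth.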

As to `FC(F)(F)c1ccc(Cc2nc3cc4ccccc4cc3[nH]2)cc1`, the TGI in the assay with ACHN renal, in the assay on CAKI-1 renal, in the assay on COLO 205 colon, in the assay on DU-145 prostate, in the assay with HCT-116 colon and with HOP-62 NSCLC was over 100 µM in each case. Also, the TGI is 47.8 µM in the assay with HOP-92 NSCLC; over 100 µM with LOX IMVI melanoma; over 100 µM with M14 melanoma; over 100 µM in the assay with MDA-MB-435; over 100 µM in the assay with NCI-H23 lung; over 100 µM in the assay with OVCAR-4 ovarian. Also, the TGI with PC-3 prostate, in the assay on RPMI-8226 leukemia, in the assay with SK-MEL-28 melanoma, in the assay with SN12C renal, with T-47D breast and in the assay on TK-10 renal was over 100 µM throughout. The same compound displayed a TGI with UACC-257 melanoma of over 100 µM.
Consider `C=CCNC(=S)N=Nc1c(O)n(CN2CCOCC2)c2ccc([N+](=O)[O-])cc12`, for which the TGI in the assay on ACHN renal, in the assay on CAKI-1 renal, with COLO 205 colon, in the assay with DU-145 prostate, in the assay with HCT-116 colon and in the assay with HOP-62 NSCLC was over 100 µM in each case. The TGI with HOP-92 NSCLC is 83.3 µM; in the assay on LOX IMVI melanoma, over 100 µM; in the assay with M14 melanoma, over 100 µM; with MDA-MB-435, over 100 µM; in the assay on NCI-H23 lung, over 100 µM; in the assay on OVCAR-4 ovarian, over 100 µM. For the same compound, the TGI was over 100 µM with PC-3 prostate; over 100 µM in the assay on RPMI-8226 leukemia; over 100 µM with SK-MEL-28 melanoma; over 100 µM in the assay with SN12C renal; 95.1 µM with T-47D breast; 93.1 µM in the assay on TK-10 renal. Besides, in the assay with UACC-257 melanoma, the TGI is over 100 µM.
For `O=C(c1cc2ccccc2[nH]1)N1C2CCC1CN(CCOC(c1ccc(F)cc1)c1ccc(F)cc1)CC2` (stereo not given), the TGI in the assay with ACHN renal, in the assay with CAKI-1 renal, in the assay on COLO 205 colon, with DU-145 prostate, in the assay with HCT-116 colon and in the assay with HOP-62 NSCLC was over 100 µM throughout. In addition, the TGI in the assay on HOP-92 NSCLC, with LOX IMVI melanoma, in the assay on M14 melanoma, in the assay on MDA-MB-435, in the assay on NCI-H23 lung and with OVCAR-4 ovarian was over 100 µM each time. Also, the TGI with PC-3 prostate, in the assay on RPMI-8226 leukemia, in the assay on SK-MEL-28 melanoma, with SN12C renal, in the assay with T-47D breast and in the assay with TK-10 renal was over 100 µM throughout. The compound also displayed a TGI with UACC-257 melanoma of over 100 µM.
Consider `Cc1ccc(S(=O)(=O)CN2C(=O)C(c3ccccc3)(c3ccccc3)C23OC(c2ccc(Cl)cc2)=CC3=O)cc1` (stereo not given), for which the TGI in the assay on ACHN renal, in the assay on CAKI-1 renal, in the assay on COLO 205 colon, with DU-145 prostate, in the assay with HCT-116 colon and with HOP-62 NSCLC was over 10 µM throughout. Also, the TGI in the assay with HOP-92 NSCLC, in the assay on LOX IMVI melanoma, in the assay with M14 melanoma, with MDA-MB-435, with NCI-H23 lung and in the assay with OVCAR-4 ovarian was over 10 µM in each case. In addition, the TGI in the assay with PC-3 prostate, with SK-MEL-28 melanoma, in the assay with SN12C renal, with T-47D breast, in the assay on TK-10 renal and in the assay on UACC-257 melanoma was over 10 µM each time.
In the case of `Clc1c(Cl)c(Cl)c2c(nnn2C2CCCO2)c1Cl` (stereo not given), the TGI is 74.9 µM with CAKI-1 renal; 47.4 µM in the assay on COLO 205 colon; over 100 µM in the assay on DU-145 prostate; over 100 µM in the assay on HCT-116 colon; over 100 µM in the assay on HOP-62 NSCLC; over 100 µM with M14 melanoma. The TGI was over 100 µM in the assay on MDA-MB-435; 49.3 µM in the assay on NCI-H23 lung; 54.5 µM in the assay with OVCAR-4 ovarian; over 100 µM in the assay on PC-3 prostate; over 100 µM in the assay on SN12C renal; 91.4 µM with SR leukemia. Also, the TGI with T-47D breast, in the assay with TK-10 renal and in the assay with UACC-257 melanoma was over 100 µM each time.
Consider `CCOP(=O)(C=C=C1CCC2[C@@H]3CCc4cc(OC)ccc4C3CC[C@]12C)OCC` (stereo not given in full), for which the TGI with ACHN renal was 21.9 µM; with CAKI-1 renal, 26.6 µM; in the assay on COLO 205 colon it was 22.7 µM; with DU-145 prostate, 30 µM; in the assay on HCT-116 colon it was 19.2 µM; with HOP-62 NSCLC, 30 µM. Further, the TGI with HOP-92 NSCLC was found to be 22.5 µM; in the assay with LOX IMVI melanoma, 24.8 µM; in the assay on M14 melanoma, 24.3 µM; in the assay on MDA-MB-435 it was 25.5 µM; with NCI-H23 lung, 20.8 µM; with OVCAR-4 ovarian, 21.3 µM. The TGI with PC-3 prostate was 15 µM; in the assay with SK-MEL-28 melanoma, 23.9 µM; in the assay with SN12C renal it was 23 µM; in the assay on T-47D breast, 26.6 µM; in the assay on TK-10 renal, 25.6 µM; in the assay with UACC-257 melanoma it was 19.6 µM.
On to `C=CCc1[nH]c2c(OCc3ccccc3)cc(N(CC=C)C(C)=O)cc2c1C`, for which the TGI stood at 25.3 µM with ACHN renal; 29.9 µM with CAKI-1 renal; 30.1 µM in the assay on COLO 205 colon; 27.8 µM in the assay on DU-145 prostate; 24.8 µM in the assay on HCT-116 colon; 36.7 µM in the assay with HOP-62 NSCLC. The TGI in the assay on HOP-92 NSCLC turned out to be 25.7 µM; with LOX IMVI melanoma, 25 µM; with M14 melanoma it was 21.8 µM; in the assay on MDA-MB-435, 33.5 µM; in the assay with NCI-H23 lung, 26.8 µM; in the assay on OVCAR-4 ovarian, 23.6 µM. In addition, the TGI stood at 20.2 µM in the assay on PC-3 prostate; 67.6 µM in the assay on RPMI-8226 leukemia; 33.5 µM in the assay with SK-MEL-28 melanoma; 32 µM with SN12C renal; 26.4 µM with T-47D breast; 30 µM in the assay with TK-10 renal. Also, the TGI in the assay with UACC-257 melanoma is 30.6 µM.
Turning to `N#C[C@H](C(=O)c1ccccc1F)c1nc2ccccc2s1`, the TGI is over 100 µM in the assay on ACHN renal; over 100 µM with CAKI-1 renal; 53.8 µM with COLO 205 colon; over 100 µM in the assay with DU-145 prostate; 61.3 µM in the assay with HCT-116 colon; over 100 µM in the assay on HOP-62 NSCLC. For the same compound, the TGI in the assay with HOP-92 NSCLC, in the assay on LOX IMVI melanoma, in the assay with M14 melanoma, in the assay with MDA-MB-435, with NCI-H23 lung and in the assay on PC-3 prostate was over 100 µM in each case. Moreover, the TGI in the assay on RPMI-8226 leukemia, in the assay with SK-MEL-28 melanoma, in the assay with SN12C renal, in the assay on T-47D breast, with TK-10 renal and in the assay with UACC-257 melanoma was over 100 µM throughout.
Turning to `CCOC(=O)CCC(NC(=O)Cc1ccc(Nc2nc3ccccc3nc2-c2cccs2)cc1)C(=O)OCC` (stereo not given), the TGI in the assay with ACHN renal, in the assay with CAKI-1 renal, in the assay on COLO 205 colon, in the assay on DU-145 prostate, with HCT-116 colon and in the assay on HOP-62 NSCLC was over 100 µM in each case. For the same compound, the TGI with M14 melanoma, with MDA-MB-435, in the assay on NCI-H23 lung, in the assay with OVCAR-4 ovarian, in the assay with PC-3 prostate and in the assay with RPMI-8226 leukemia was over 100 µM in each case. The TGI in the assay on SK-MEL-28 melanoma is over 100 µM; in the assay on SN12C renal it was over 100 µM; with SR leukemia it was over 100 µM; in the assay on T-47D breast, 66.9 µM; in the assay on TK-10 renal, 84.5 µM; with UACC-257 melanoma it was over 100 µM.
On to `O=P1(Oc2ccccc2)N=P(c2ccccc2)(c2ccccc2)C=C(c2ccc(Cl)cc2)N1` (stereo not given), for which the TGI in the assay with ACHN renal was 25.6 µM; with CAKI-1 renal it was 23 µM; in the assay with COLO 205 colon it was 17.1 µM; with DU-145 prostate it was 26.9 µM; in the assay with HCT-116 colon it was 30.5 µM; in the assay with HOP-62 NSCLC, 33.6 µM. The TGI was found to be 25.4 µM in the assay on HOP-92 NSCLC; 21.1 µM in the assay on M14 melanoma; 17.1 µM in the assay with MDA-MB-435; 32.2 µM in the assay on NCI-H23 lung; 20.7 µM with PC-3 prostate; 9.55 µM in the assay on RPMI-8226 leukemia. Besides, the TGI in the assay on SN12C renal came to 32.4 µM; in the assay on SR leukemia, 21.5 µM; with T-47D breast, 24.7 µM; with TK-10 renal, 26.8 µM; in the assay on UACC-257 melanoma, 30.8 µM.
For `CCOc1ccc2nc3nc(=O)[nH]c(C)c3c(NCCCN(CC)CC)c2c1`, the TGI with ACHN renal, in the assay on CAKI-1 renal, with COLO 205 colon, in the assay with DU-145 prostate, with HCT-116 colon and in the assay with HOP-62 NSCLC was over 100 µM in each case. The TGI in the assay with HOP-92 NSCLC, in the assay with LOX IMVI melanoma, with M14 melanoma, in the assay with MDA-MB-435, in the assay on NCI-H23 lung and with OVCAR-4 ovarian was over 100 µM each time. Moreover, the TGI in the assay on PC-3 prostate, with SK-MEL-28 melanoma, in the assay on SN12C renal, with T-47D breast, in the assay on TK-10 renal and in the assay on UACC-257 melanoma was over 100 µM in each case.
Take `CC(C)C1OC(N)=C(C#N)C1(C#N)C#N` (stereo not given): the TGI was over 100 µM in the assay with ACHN renal; 13.5 µM with CAKI-1 renal; over 100 µM with COLO 205 colon; over 100 µM in the assay on DU-145 prostate; over 100 µM in the assay with HCT-116 colon; over 100 µM with HOP-62 NSCLC. Also, the TGI in the assay on HOP-92 NSCLC, in the assay with LOX IMVI melanoma, with M14 melanoma, in the assay with MDA-MB-435, in the assay on NCI-H23 lung and with PC-3 prostate was over 100 µM throughout. For the same compound, the TGI in the assay on RPMI-8226 leukemia is 79.2 µM; with SN12C renal it was over 100 µM; with T-47D breast, over 100 µM; with TK-10 renal, over 100 µM; in the assay on UACC-257 melanoma it was 96.4 µM.
